The structures appear in SMILES notation. Read-outs that look alike come from different tables or passages of the source.

The values below come from PMC7226045, “Ensartinib (X-396) Effectively Modulates Pharmacokinetic Resistance Mediated by ABCB1 and ABCG2 Drug Efflux Transporters and CYP3A4 Biotransformation Enzyme” (Cancers, 2020).

The subject of data set [1] is MDCKII-ABCB1 cells. Put plainly: MTT proliferation / drug combination assay, MDCKII-ABCB1. The settings on record: Canis lupus familiaris, 48 h. The protocol: MTT proliferation assay was performed as described previously. Cells were seeded on a 96-well culture plate at densities (in units of cells/well) of 1.3 × 10^4 for MDCKII-par, MDCKII-ABCB1, MDCKII-ABCG2, and MDCKII-ABCC1; 1.2 × 10^4 for A431-par, A431-ABCB1, A431-ABCG2 and A431-ABCC1; 1.2 × 10^4 for NCI-H1299; 2.0 × 10^4 for Caco-2; 5.0 × 10^4 for LS174T; and 6.0 × 10^4 for HepG2-CYP3A4 and HepG2-EV. After seeding, the cells were cultured for 24 h, then the media was removed and the cells were treated with serial dilutions of a drug or drug combination for 48 h. Vehicles containing media and 40% DMSO in media served as 100% and 0% viability controls, respectively. Upon completion of the 48 h period, the cells were washed once with 1× PBS, the media was replaced with an MTT solution in Opti-MEM (1 mg/mL), and the cells were incubated under standard conditions for 60 min. MTT solution was carefully removed and the resulting formazan crystals were immediately solubilized in DMSO. The cells were then shaken gently for 10 min, after which absorbance of their lysate was measured at 570 nm and 690 nm using a microplate reader (Infinite M200, Tecan, Salzburg, Austria); background values obtained at 690 nm were subtracted from the measurements obtained at 570 nm. This method was used to assess the effect of ABC transporters on sensitivity to ensartinib, in drug combination assays, and to identify drug concentrations appropriate for use in induction studies.
(§1) Experiments focusing on the modulation of ABC transporter-mediated resistance were performed as described previously. The parent MDCKII and HL60 cells and their ABCB1-, ABCG2-, and ABCC1-overexpressing counterparts were seeded at the densities specified above onto 96-well culture plates and cultured for 24 h. The medium was subsequently replaced with serial dilutions of ensartinib alone or with various concentrations of a model MDR-susceptible cytostatic agent (daunorubicin or mitoxantrone) with or without 10 µM ensartinib. After 48 h incubation, the cells’ viability was determined as described above. In addition to performing IC50-shift analyses, the viability measurements were converted to FA (fraction of cells affected) values and the effects of drug combinations were quantified using the Chou-Talalay combination index (CI) method as implemented in CompuSyn 3.0.1 (ComboSyn Inc., Paramus, NJ, USA). The effects of concomitantly administered drugs were classified as synergistic (CI < 0.9), additive (0.9 < CI < 1.1), or antagonistic (CI > 1.1) based on the computed CI values.

Data set [2] deals with HL60-parent cells. Briefly: XTT proliferation / drug combination assay, HL60-parent. The class given is cell-based, human. The following applies: Homo sapiens, 48 h.
Method: The parent MDCKII and HL60 cells and their ABCB1-, ABCG2-, and ABCC1-overexpressing counterparts were seeded at the densities specified above onto 96-well culture plates and cultured for 24 h. The medium was subsequently replaced with serial dilutions of ensartinib alone or with various concentrations of a model MDR-susceptible cytostatic agent (daunorubicin or mitoxantrone) with or without 10 µM ensartinib. After 48 h incubation, the cells’ viability was determined as described above. In addition to performing IC50-shift analyses, the viability measurements were converted to FA (fraction of cells affected) values and the effects of drug combinations were quantified using the Chou-Talalay combination index (CI) method as implemented in CompuSyn 3.0.1 (ComboSyn Inc., Paramus, NJ, USA). The effects of concomitantly administered drugs were classified as synergistic (CI < 0.9), additive (0.9 < CI < 1.1), or antagonistic (CI > 1.1) based on the computed CI values [57].
Data set [3] has as its system MDCKII-parent cells. Put plainly: MTT proliferation / drug combination assay, MDCKII-parent. The following applies: Canis lupus familiaris, 48 h. It is filed as cell-based, canine. The protocol:
(§2) MTT proliferation assay was performed as described previously.

Data set [4] has as its system HL60-ABCB1 cells. Put plainly: XTT proliferation / drug combination assay, HL60-ABCB1. The settings on record: Homo sapiens, 48 h. The protocol:
(§3) The MTT method is not readily adapted for use with suspension cell cultures, therefore the XTT assay was used to assess the proliferation of HL60 cells. Briefly, HL60-par, HL60-ABCB1, HL60-ABCG2, and HL60-ABCC1 cells were seeded at 2 × 10^4 cells/well in 96-well culture plates. Immediately after seeding, dilutions of the tested drugs or drug combinations were added to the cells. The plates were then incubated under standard conditions (37 °C, 5% CO2) for 48 h, after which XTT solution in PBS (1 mg/mL) and phenazine methosulfate (7.50 µg/mL) were added to the cells and the plates were incubated for another 5 h. Finally, the cells’ absorbance was measured at 450 nm using a microplate reader (Infinite M200, Tecan, Salzburg, Austria). This method was used to assess the effect of ABC transporters on sensitivity to ensartinib and in drug combination assays.
as §1

Data set [5] concerns HepG2-CYP3A4 cells. Put plainly: Docetaxel combination assay (MTT), HepG2-CYP3A4. It is filed as cell-based, human. The following applies: 1 µM docetaxel. The protocol: as §2
(§4) Cell viability was measured after a 48 h incubation using the MTT method as described above. […] Sensitization effects of < 0%, 0%, and >0% indicate antagonism, additivity, and synergism, respectively.

For data set [6], the system named is HepG2-EV cells. Briefly: Docetaxel combination assay (MTT), HepG2-EV. It is filed as cell-based, human. The following applies: 1 µM docetaxel, <0% antagonism, =0% additivity, >0% synergism. The protocol: as §2, §4
Data set [7] has as its system HL60-ABCG2 cells. Put plainly: XTT proliferation / drug combination assay, HL60-ABCG2. It is filed as cell-based, human. The following applies: Homo sapiens, cytostatic alone or with 10 µM ensartinib, 48 h. The protocol: as §3, §1
The test system of data set [8] is MDCKII-ABCG2 cells. Put plainly: MTT proliferation / drug combination assay, MDCKII-ABCG2. The class given is cell-based, canine. The settings on record: Canis lupus familiaris, cytostatic alone or with 10 µM ensartinib, 48 h. The protocol:
as §2

In the case of `COc1cccc2c1C(=O)c1c(O)c3c(c(O)c1C2=O)C[C@@](O)(C(C)=O)C[C@@H]3O[C@H]1C[C@H](N)[C@H](O)[C@H](C)O1` [daunorubicin], the IC50 was 11900 nM in data set [1], 53.1 nM in data set [2], 947 nM in data set [3] and 2390 nM in data set [4].

Regarding `CC(=O)O[C@@]12CO[C@@H]1C[C@H](O)[C@@]1(C)C(=O)[C@H](O)C3=C(C)[C@@H](OC(=O)[C@H](O)[C@@H](NC(=O)OC(C)(C)C)c4ccccc4)C[C@@](O)([C@@H](OC(=O)c4ccccc4)[C@H]21)C3(C)C` [docetaxel], in data set [5] (Homo sapiens, 48 h, HepG2-CYP3A4 vs HepG2-EV, read-out: viability of CYP3A4-overexpressing cells greater than that of empty vector cells), the viability at 1 µM is 24.4%.

As for `CC(=O)N1CCN(c2ccc(OCC3COC(Cn4ccnc4)(c4ccc(Cl)cc4Cl)O3)cc2)CC1` (centres unmarked) [ketoconazole], the “sensitization effect of combination with docetaxel” value in data set [6] is recorded as “antagonistic”; in data set [5] (HepG2-CYP3A4, <0% antagonism, =0% additivity, >0% synergism) it was “synergistic”.

As to `O=C1c2c(O)ccc(O)c2C(=O)c2c(NCCNCCO)ccc(NCCNCCO)c21` [mitoxantrone], the IC50 in data set [7] was 666 nM; in data set [2] (HL60-parent, cytostatic alone or with 10 µM ensartinib, read-out: IC50), 30.5 nM; in data set [8], 9980 nM; in data set [3] (MDCKII-parent, cytostatic alone or with 10 µM ensartinib, read-out: IC50), 1590 nM.
